Measured values published in publication PMC3806476, “Natural and Semisynthetic Analogues of Manadoperoxide B Reveal New Structural Requirements for Trypanocidal Activity” (Marine Drugs, 2013).
≈ marks a conversion by molar mass, not a printed value. Where “and” joins values, the source holds several entries; their conditions need not be identical. Identical values can stand only once. Like-named read-outs stand apart in the source and are kept apart here.

Columns and labels:
[1] = system: bloodstream forms of Trypanosoma brucei rhodesiense STIB 900 strain; parameters: method as in PMID 22859016; settings: cited from earlier work
[2] = system: bloodstream forms of Trypanosoma brucei rhodesiense STIB 900 strain; assay: Activity against Trypanosoma brucei rhodesiense (resazurin, 72 h); format: cell-based; settings: for IC50: Trypanosoma brucei
Description: Minimum Essential Medium (50 µL) supplemented with 25 mM HEPES, 1 g/L additional glucose, 1% MEM non-essential amino acids (100×), 0.2 mM 2-mercaptoethanol, 1mM Na-pyruvate and 15% heat inactivated horse serum was added to each well of a 96-well microtiter plate. Serial drug dilutions of eleven 3-fold dilution steps covering a range from 100 to 0.002 μg/mL were prepared. Then 4 × 10^4 bloodstream forms of STIB 900 strain (the stock was isolated in 1982 from a human patient in Tanzania and after several mouse passages was cloned and adapted to axenic culture conditions) of T. b. rhodesiense in 50 μL was added to each well and the plate incubated at 37 °C under a 5% CO2 atmosphere for 72 h. 10 µL of a resazurin solution (prepared dissolving 12.5 mg resazurin in 100 mL double distilled water) was then added to each well and incubation continued for a further 2–4 h. Then the plates were read in a Spectramax Gemini XS microplate fluorometer (Molecular Devices Cooperation, Sunnyvale, CA, USA) using an excitation wavelength of 536 nm and an emission wavelength of 588 nm. The IC50 values were calculated by linear regression from the sigmoidal dose inhibition curves using SoftmaxPro software (Molecular Devices Cooperation, Sunnyvale, CA, USA). Melarsoprol was the standard drug.

[3] = Cytotoxicity against L6 cells (resazurin, 72 h); format: cell-based, rat
Description: Assays were performed in 96-well microtiter plates, each well containing 100 μL of RPMI 1640 medium supplemented with 1% L-glutamine (200 mM) and 10% fetal bovine serum, and 4 × 10^4 L-6 cells. Serial drug dilutions of eleven 3-fold dilution steps covering a range from 100 to 0.002 μg/mL were prepared. After 72 h of incubation the plates were inspected under an inverted microscope to assure growth of the controls and sterile conditions. 10 μL of a resazurin solution (prepared dissolving 12.5 mg resazurin in 100 mL double distilled water) was then added to each well and the plates incubated for another 2 h. The plates were read with a Spectramax Gemini XS microplate fluorometer using an excitation wavelength of 536 nm and an emission wavelength of 588 nm. The IC50 values were calculated by linear regression from the sigmoidal dose inhibition curves using SoftmaxPro software (Molecular Devices Cooperation, Sunnyvale, CA, USA). The reported IC50 values are the means of at least two separate experiments. Podophyllotoxin was used as control drug.

[4] = system: bloodstream forms of Trypanosoma brucei rhodesiense STIB 900 strain; assay: Activity against Trypanosoma brucei rhodesiense (resazurin, 72 h); format: cell-based; settings: at the highest test concentrations (20 μg/mL)
[5] = in vitro, read-out: IC50 against T. b. rhodesiense
[6] = in vitro, bloodstream forms, mean of at least two replicates, read-out: IC50 T. b. rhodesiense
[7] = in vitro, bloodstream forms, mean of at least two replicates, read-out: IC50 T. b. rhodesiense (in parentheses)
[8] = rat skeletal myoblasts, mean of at least two replicates, read-out: IC50 Cytotoxicity L6 cells
[9] = rat skeletal myoblasts, mean of at least two replicates, read-out: IC50 Cytotoxicity L6 cells (in parentheses)

manadoperoxide I
IC50 against T. b. rhodesiense ([1]; in vitro): 0.062 µg/mL
IC50 [1, 5]: 170 nM

CC/C=C(C)/C=C/CCC[C@]1(OC)C[C@H](C)[C@H](CC(=O)O)OO1 [Manadoperoxidic acid B (3), manadoperoxidic acid B]
IC50 [2, 6]: 1.87 µg/mL
IC50 [2, 7]: 5740 nM
IC50 at 72 h ([3]; rat): 7.12 µg/mL and 21.8 µM

Nc1nc(N)nc(Nc2ccc([As]3SCC(CO)S3)cc2)n1 (stereo not drawn) [Melarsoprol, reference compound]
IC50 ([2]; read-out: IC50 T. b. rhodesiense): 0.002 µg/mL
IC50 ([2]; read-out: IC50 T. b. rhodesiense (in parentheses)): 5 nM
IC50 at 72 h [3, 8]: 7.3 µg/mL
IC50 at 72 h [3, 9]: 18200 nM

COC(=O)C[C@@H]1OO[C@@](CCCC=O)(OC)C[C@@H]1C [Aldehyde 7]
IC50 [2, 6]: 1.21 µg/mL
IC50 [2, 7]: 4420 nM
IC50 at 72 h ([3]; rat): 7.55 µg/mL and 27.6 µM

COc1cc([C@@H]2c3cc4c(cc3[C@H](O)[C@H]3COC(=O)[C@H]23)OCO4)cc(OC)c1OC [Podophyllotoxin, reference compound]
IC50 at 72 h [3, 8]: 0.004 µg/mL
IC50 at 72 h [3, 9]: 9.6 nM

CC/C=C(C)/C=C/CCC[C@]1(OC)C[C@H](C)[C@H](CC(=O)OC)OO1 [Manadoperoxide B (1), manadoperoxide B]
IC50 T. b. rhodesiense ([1]; in vitro): 0.003 µg/mL (≈ 8.81 nM)
IC50 ([1]; in vitro, read-out: IC50 T. b. rhodesiense (in parentheses)): 8.8 nM

CC/C=C(C)\C=C\CCC[C@]1(OC)C[C@H](C)[C@H](CC(=O)OC)OO1 [12-Isomanadoperoxide B (2), 12-isomanadoperoxide B]
selectivity index (SI) ([2]; IC50 against L6 cells divided by IC50 against the parasite): 345
IC50 [2, 6]: 0.011 µg/mL
IC50 [2, 7]: 32 nM
trypanocidal activity relative to manadoperoxide B (1) ([2]; comparison of IC50 values against T. b. rhodesiense): four-fold reduction
IC50 at 72 h ([3]; rat): 3.8 µg/mL and 11.2 µM

peroxyplakoric ester B3
activity against T. b. rhodesiense (in words) ([1]; methyl linked at C-2 in place of C-4): almost completely lost

manadoperoxide K
IC50 against T. b. rhodesiense ([1]; in vitro): 0.087 µg/mL
IC50 [1, 5]: 240 nM

CC/C=C(C)/C=C/CCCC1(O)C[C@H](C)[C@H](CC(=O)OC)O1 (stereo partly drawn) [Compound 6]
IC50 [2, 6]: > 20 µg/mL
IC50 at 72 h ([3]; rat): 82.3 µg/mL and 252 µM
antitrypanosomal activity (in words) [4]: inactive

CC[C@H]1OO[C@@H](CCC[C@]2(OC)C[C@H](C)[C@H](CC(=O)OC)OO2)C=C1C [Compound 8]
IC50 [2, 6]: 0.16 µg/mL
IC50 [2, 7]: 430 nM
IC50 at 72 h ([3]; rat): 12.6 µg/mL and 33.8 µM
